Entries after “also recorded” stand apart in the source; their conditions may differ.
Key:
[1] = test system: human dermal microvascular endothelial cells (HMVECs); assay: In vitro endothelial cell permeability assay (passage of FITC-dextran through HMVEC monolayer); format: cell-based
Protocol: Permeability Assays. In vitro permeability assay was performed as previously described (48). Briefly, HMVEC were seeded on collagen-coated transwells ([…], PTFE; Corning), and allowed to grow as a 3-d-old mature monolayer. Following overnight starvation, 500 μL and 100 μL of conditioned medium were added for 30 min (37° C.) to the bottom and top chamber, respectively. A total of 100 μL of 1 mg/mL FITC dextran (molecular weight=40,000; Invitrogen) was added for 30 min. Fluorescence was quantified using a SpectraMax M5 Microplate Reader (Molecular Devices) with excitation at 494 nm and emission at 521 nm.

inner retina vessels [2] = assay: OIR mouse model: vascular permeability / retinal edema (inner retinal cysts, extravascular albumin); format: in vivo; details: P13 OIR mice, digoxin 2 mg/kg daily intraperitoneal
Protocol: (§1) Oxygen-Induced Retinopathy (OIR). […] At P12 the mice were returned to room air.
(§2) Quantitation of vascular permeability in the retina was assessed by examining 4 high powered fields of the posterior retina from three animals and counting the number of CD31-labled inner retina vessels in the posterior retina that had visible adjacent extravascular albumin (detected by immunofluorescence) as a percent of the total vessels in each field.
(§3) Immunohistochemistry and Immunofluorescence. Immunohistochemical detection of extravascular albumin (Cedarlane-Nordic) was performed on cryopreserved mouse tissue sections using a nitroblue tetrazolium (NBT) development system using Streptavidin alkaline phosphatase (APase) as previously described (53) Immunohistochemical detection of HIF-1 alpha (Abcam), human and murine ANGPTL4 (Abcam and Lifespan BioSciences, respectively), VEGF (Santa Cuz), CD34 (Covance), and GFAP (Sigma) were performed in paraffin embedded human tissue (obtained from the Wilmer Eye Institute Ocular Pathology Archives with approval from the Johns Hopkins School of Medicine Internal Review Board) and mice cryopreserved tissue using ABC system (Dako) as previously described (4).

GFAP = assay: OIR mouse model: GFAP expression in Müller cells; format: in vivo; details: OIR mice, administration of digoxin
From the text: as §1

Angptl4 [3] = assay: OIR mouse model: RT-PCR of Angptl4 mRNA in neurosensory retina; format: in vivo; details: OIR mice P12-P14, daily intraperitoneal digoxin
Protocol: as §1
(§4) Quantitative Real-Time RT-PCR. RNA was isolated from culture cells or retinas with RNeasy Mini Kit (Qiagen) and cDNA prepared using MuLV Reverse Transcriptase (Applied Biosystems, Carlsbad, Calif.). Quantitative real-time PCR was performed with Power SYBR Green PCR Master Mix (Applied Biosystems) and MyiQ Real-Time PCR Detection System (Bio Rad). Normalization was done using cyclophilin A for mouse tissue and cell lines and β-actin for human cell lines. Primers for qPCR include: human VEGF, forward—[…] (SEQ ID NO:1) and reverse—[…] (SEQ ID NO:2); human ANGPTL4, forward—[…] (SEQ ID NO:3) and reverse—[…] (SEQ ID NO:4); human β-actin, forward—[…] (SEQ ID NO:5) and reverse—[…](SEQ ID NO:6); mouse VEGF, forward—[…] (SEQ ID NO:7) and reverse—[…](SEQ ID NO:8); mouse ANGPTL4, forward—[…] (SEQ ID NO:9) and reverse—[…] (SEQ ID NO:10); mouse cyclophilin A, forward—[…] (SEQ ID NO:11) and reverse—[…] (SEQ ID NO:12).

Vegf [4] = assay: OIR mouse model: RT-PCR of Vegf mRNA in neurosensory retina; format: in vivo; details: OIR mice P12-P14, daily intraperitoneal digoxin
Protocol: as §1, §4

VEGF [5] = assay: MIO-M1 Müller cells: VEGF mRNA (RT-PCR) and secreted protein (ELISA); format: cell-based, human; details: digoxin 100 nM, 2 hours prior to hypoxia; 8 hours hypoxia
Protocol: (§5) Cell Culture and Reagents. MIO-M1 cells were a generous gift from Astrid Limb (University College London Institute of Ophthalmology). Isolation of primary Müller cells was performed as previously described (51). Primary human dermal microvascular endothelial cells (HMVEC) were obtained from Lonza and cultured according the manufacter's protocols. Recombinant ANGPTL4 and VEGF, and ANGPTL4 and VEGF ELISA kits were obtained from R&D Systems. The KDR inhibitor, SU1498, and rapamycin were obtained from Calbiochem. Digoxin was obtained from Sigma. Predesigned control (Scrambled) and ANGPTL4 and HIF-1β siRNA sequences were obtained from Qiagen. AdLacZ and AdCAS have been previously described (26).
(§6) Quantitative Real-Time RT-PCR. RNA was isolated from culture cells or retinas with RNeasy Mini Kit (Qiagen) and cDNA prepared using MuLV Reverse Transcriptase (Applied Biosystems, Carlsbad, Calif.). Quantitative real-time PCR was performed with Power SYBR Green PCR Master Mix (Applied Biosystems) and MyiQ Real-Time PCR Detection System (Bio Rad). Normalization was done using cyclophilin A for mouse tissue and cell lines and β-actin for human cell lines. Primers for qPCR include: human VEGF, forward—[…] (SEQ ID NO:1) and reverse—[…] (SEQ ID NO:2); human ANGPTL4, forward—[…] (SEQ ID NO:3) and reverse—[…] (SEQ ID NO:4); human β-actin, forward—[…] […]

ANGPTL4 [6] = assay: MIO-M1 Müller cells: ANGPTL4 mRNA (RT-PCR) and protein (Western blot/ELISA); format: cell-based, human; details: digoxin pretreatment (100 ng as printed), 2 hours prior hypoxia
Protocol: as §5, §6

mouse ear vasculature = assay: Modified Miles assay, vascular permeability in the mouse ear; format: in vivo; details: intradermal injection of ANGPTL4 0.2 μg vs PBS
Protocol: In vivo permeability was assessed using a modified Miles assay as previously described (48). Briefly, Evan Blue dye was injected into mouse tail veins (200 μL of 12 mg/ml solution in PBS). After 5 minutes, animals were anesthetized using Tribromoethanol. 20 ul 0.2 ug VEGF or 0.2 ug ANGPTL4 was injected intradermally into the right ear (PBS was injected into left ear as a control). After 8 minutes, photographs were taken. Levels of Evans blue dye was then extracted from mouse ear in 1 mL of formamide at 55° C. for 16 hours and dye content quantified at 610 nm using a spectrophotometer (48).

angiogenesis = assay: Promotion of angiogenesis / NV in vitro and in vivo (Example 9, cornea pocket assay)
From the text: Cell Culture: ARPE19, human ES derived RPE cells, primary murine RPE cells. Rat: Subretinal lipid hydroperoxide CNV Model. Assays used included Cornea pocket assay, Western Blot and RT-PCR, and Immunohistochemistry and Immunofluorescence. Patient Samples: ELISA analysis of ANGPTL4 levels in aqueous humor.

inner retina vessels [7] = assay: Intravitreal injection of recombinant protein into the mouse eye: retinal vascular permeability; format: in vivo
Protocol: […]. Intraocular injections with 1 μl of rmVEGF or rmANGPTL4 (200 ng/ul) were performed with a nanofil syringe (World Precision Instruments) using a 36G beveled needle. Intraocular injections with 1 μl of AdLacZ or AdCAS (2×10^12 VP/mL) were performed with pulled-glass micropipettes and a Harvard pump microinjection apparatus as previously described (52).
as §2, §3

CC(C)c1cc(/C=C(\C#N)C(=O)NCCCc2ccccc2)cc(C(C)C)c1O [SU1498]
endothelial cell permeability promoted by 100 ng recombinant human VEGF ([1]; SU1498 5 μM pre-treatment of endothelial cells): completely blocked the induction of endothelial cell permeability; also recorded: abolishes the promotion of endothelial cell permeability by 100 ng of recombinant human VEGF | endothelial cell permeability promoted by conditioned media from hypoxic MIO-M1 cells ([1]; SU1498 5 μM pre-treatment of endothelial cells, 8 hours hypoxia): only a partial inhibition of endothelial cell permeability; also recorded: only partially blocks the promotion of endothelial cell permeability

C[C@H]1O[C@@H](O[C@H]2[C@@H](O)C[C@H](O[C@H]3[C@@H](O)C[C@H](O[C@H]4CC[C@@]5(C)[C@H](CC[C@@H]6[C@@H]5C[C@@H](O)[C@]5(C)[C@@H](C7=CC(=O)OC7)CC[C@]65O)C4)O[C@@H]3C)O[C@@H]2C)C[C@H](O)[C@@H]1O [digoxin]
vascular permeability (inner retinal cysts, extravasated albumin) (inner retina vessels [2]): decrease in vascular permeability; also recorded: inhibits the increase in inner retinal cysts and extravasated albumin | GFAP expression (GFAP): not affected | induction of Angptl4 mRNA (Angptl4 [3]): completely abolished the induction of Angptl4 | induction of Vegf mRNA (Vegf [4]): only partially inhibited the induction of Vegf | VEGF mRNA expression and protein secretion (VEGF [5]): inhibited VEGF mRNA expression and protein secretion; also recorded: inhibits | ANGPTL4 RNA and protein induced by hypoxia (ANGPTL4 [6]): inhibited | endothelial cell permeability promoted by conditioned media from hypoxic MIO-M1 cells ([1]; MIO-M1 pre-treated with 100 nM digoxin 2 hours prior to 8 hour hypoxia): potently blocked the property of the conditioned media to promote an increase in endothelial cell permeability; also recorded: inhibits the promotion of endothelial cell permeability by hypoxic MIO-M1 cells

VEGF
endothelial cell permeability ([1]; VEGF 100 ng): promotes endothelial cell permeability

B1: ANGPTL4: Recombinant angiopoietin-like 4 protein obtained from R&D Systems (protein, UniProt Q9BY76 26-406, looked up)
Angiopoietin-related protein 4: GPVQSKSPRFASWDEMNVLAHGLLQLGQGLREHAERTRSQLSALERRLSACGSACQGTEGSTDLPLAPESRVDPEVLHSLQTQLKAQNSRIQQLFHKVAQQQRHLEKQHLRIQHLQSQFGLLDHKHLDHEVAKPARRKRLPEMAQPVDPAHNVSRLHRLPRDCQELFQVGERQSGLFEIQPQGSPPFLVNCKMTSDGGWTVIQRRHDGSVDFNRPWEAYKAGFGDPHGEFWLGLEKVHSITGDRNSRLAVQLRDWDGNAELLQFSVHLGGEDTAYSLQLTAPVAGQLGATTVPPSGLSVPFSTWDQDHDLRRDKNCAKSLSGGWWFGTCSHSNLNGQYFRSIPQQRQKLKKGIFWKTWRGRYYPLQATTMLIQPMAAEAAS
endothelial cell permeability ([1]; recombinant human ANGPTL4 2.5 or 5 μg): potently induced endothelial cell permeability | endothelial cell permeability ([1]; recombinant human ANGPTL4 2.5 or 5 μg, listed as recombinant human ANGPTL4): promotes endothelial cell permeability | vascular permeability (Evans blue dye, 610 nm) (mouse ear vasculature): remarkable increase in vascular permeability; also recorded: marked increase in dye | promotion of angiogenesis (angiogenesis): promoted angiogenesis both in vitro and in vivo

B2: rmANGPTL4: recombinant murine ANGPTL4 injected intravitreally (protein, UniProt Q9Z1P8 24-410, looked up)
Angiopoietin-related protein 4: QGRPAQPEPPRFASWDEMNLLAHGLLQLGHGLREHVERTRGQLGALERRMAACGNACQGPKGKDAPFKDSEDRVPEGQTPETLQSLQTQLKAQNSKIQQLFQKVAQQQRYLSKQNLRIQNLQSQIDLLAPTHLDNGVDKTSRGKRLPKMTQLIGLTPNATHLHRPPRDCQELFQEGERHSGLFQIQPLGSPPFLVNCEMTSDGGWTVIQRRLNGSVDFNQSWEAYKDGFGDPQGEFWLGLEKMHSITGNRGSQLAVQLQDWDGNAKLLQFPIHLGGEDTAYSLQLTEPTANELGATNVSPNGLSLPFSTWDQDHDLRGDLNCAKSLSGGWWFGTCSHSNLNGQYFHSIPRQRQERKKGIFWKTWKGRYYPLQATTLLIQPMEATAAS
inner retinal cysts (H & E) (inner retina vessels [7]; 200 ng rmANGPTL4 intravitreal vs PBS): increased inner retinal cysts | extravasation of albumin (immunohistochemistry) (inner retina vessels [7]; 200 ng rmANGPTL4 intravitreal vs control): extravasation of albumin | vascular permeability (leakage of plasma and albumin) (inner retina vessels [7]; rmANGPTL4 intravitreal, retinas after 48 hours): marked and statistically significant increase in vascular permeability
